{
  "source": "patent US8629293B2",
  "about": "“Process for the preparation of FE(III) chelates of N,N′-DI(2-hydroxybenzyl)-ethylenediamine-N,N′-diacetic acid and its derivatives” (Przedsiebiorstwo Produkcyjno-Consultingowe Adob SP. Z O.O. …, priority 2009, dated 2014)",
  "key": {"[1]": {"system": "soybean (Glycine max L.) var. Stine 0480", "assay": "Fertilising of soya in plant growth climatic chamber: plant dry matter", "format": "in vivo", "description": "(§1) The experiment was performed using the seeds of soybean (Glycine max L.) var. Stine 0480. A standard seed germination procedure was followed. Before starting the experiment, the seeds were thoroughly washed with water (30 minutes). The clean seeds were placed between two sheets of a cellulose paper soaked with water. The seeds germinated over two days in a climatic chamber at a temperature of 30° C. and a humidity of 60%, without access of light. After that time, the seedlings at a similar stage of development were placed on perforated trays floating over containers containing 10 L of the diluted nutrient solution for four days, followed by next three days using a solution containing micronutrients but without iron. Composition of the nutrient solution was: 1 mM Ca(NO3)2, 0.90 mM KNO3, 0.30 mM MgSO4, 0.10 mM KH2PO4, 2.5 μM MnSO4, 1.0 μM CuSO4, 10 μM ZnSO4, 1.0 μM NiCl2, 1.0 μM CoSO4, 115.5 μM Na2EDTA, 231 μM KOH, 35 μM NaCl, 10 μM H3BO3, 0.05 μM Na2MoO4 and 0.1 mM of N-(2-hydroxyethyl)piperazine-N′-(2-ethanesulfonic acid) sodium salt (HEPES). The pH value was adjusted to 7.5 using 1M KOH. 1-litre pots were filled with soil and sand in a volume ratio of 2:1. The test plants were transplanted into the thus-prepared pots, 3 plants per each pot. The experiment was carried out with adhering to the daily cycle of plant growth: 16 h of day time (30° C., 50% humidity) and 8 h of night time (25° C., 70% humidity).\n(§2) Seven days after transplanting the plants into the pots, the symptoms of chlorosis were observed. The further part of the experiment was aimed at comparison of the effectiveness of performance of FeHBED with that of the commercially available FeEDDHA. For this purpose, the solutions of FeHBED and FeEDDHA were prepared, in which the iron isotope ^57Fe was used. The concentrations of ^57Fe in the doses were 0, 1.7, 3.4, 8.4, 16.8, 25.1 and 41.9 μmol of ^57Fe/kg of soil. Each dose was applied in duplicate. Additionally, a blank test (without iron) was performed for three pots.\nTable 1 summarises the results of dry matter of above-ground sprouts (leaves and stems) for the plants gathered after every application of iron solutions of various concentration for two samplings."}, "[2]": {"system": "soybean (Glycine max L.) var. Stine 0480", "assay": "Fertilising of soya in plant growth climatic chamber: SPAD index (leaves greenness)", "format": "in vivo", "settings": "for The SPAD index, 2nd level of foliage / The SPAD index, 3rd level of foliage: end of experiment", "description": "as §1, §2\nThe SPAD index (a measure of leaves greenness) was determined every two days during the whole experiment."}},
  "data": [
    {"compound": "O=C([O-])C(NCCNC(C(=O)[O-])c1ccccc1[O-])c1ccccc1[O-].[Fe+3]", "note": "(centres unmarked) [o,oEDDHA, reference compound]", "values": [
      {"measurement": "Root dry weight", "setting": "[1]; dose 1.7 μmol 57Fe/kg of soil", "value": 0.44, "unit": "g/3 plants"},
      {"measurement": "Sprout dry weight, 1 sampling", "setting": "[1]; dose 1.7 μmol 57Fe/kg of soil", "value": 0.88, "unit": "g/plant"},
      {"measurement": "Sprout dry weight, 2 sampling", "setting": "[1]; dose 1.7 μmol 57Fe/kg of soil", "value": 2.08, "unit": "g/plant"},
      {"measurement": "Root dry weight", "setting": "[1]; dose 3.4 μmol 57Fe/kg of soil", "value": 0.51, "unit": "g/3 plants"},
      {"measurement": "Sprout dry weight, 1 sampling", "setting": "[1]; dose 3.4 μmol 57Fe/kg of soil", "value": 0.79, "unit": "g/plant"},
      {"measurement": "Sprout dry weight, 2 sampling", "setting": "[1]; dose 3.4 μmol 57Fe/kg of soil", "value": 2.92, "unit": "g/plant"},
      {"measurement": "Root dry weight", "setting": "[1]; dose 8.4 μmol 57Fe/kg of soil", "value": 0.49, "unit": "g/3 plants"},
      {"measurement": "Sprout dry weight, 1 sampling", "setting": "[1]; dose 8.4 μmol 57Fe/kg of soil", "value": 0.87, "unit": "g/plant"},
      {"measurement": "Sprout dry weight, 2 sampling", "setting": "[1]; dose 8.4 μmol 57Fe/kg of soil", "value": 2.03, "unit": "g/plant"},
      {"measurement": "Root dry weight", "setting": "[1]; dose 16.8 μmol 57Fe/kg of soil", "value": 0.53, "unit": "g/3 plants"},
      {"measurement": "Sprout dry weight, 1 sampling", "setting": "[1]; dose 16.8 μmol 57Fe/kg of soil", "value": 0.84, "unit": "g/plant"},
      {"measurement": "Sprout dry weight, 2 sampling", "setting": "[1]; dose 16.8 μmol 57Fe/kg of soil", "value": 2.56, "unit": "g/plant"},
      {"measurement": "Root dry weight", "setting": "[1]; dose 25.1 μmol 57Fe/kg of soil", "value": 0.59, "unit": "g/3 plants"},
      {"measurement": "Sprout dry weight, 1 sampling", "setting": "[1]; dose 25.1 μmol 57Fe/kg of soil", "value": 0.81, "unit": "g/plant"},
      {"measurement": "Sprout dry weight, 2 sampling", "setting": "[1]; dose 25.1 μmol 57Fe/kg of soil", "value": 2.73, "unit": "g/plant"},
      {"measurement": "Root dry weight", "setting": "[1]; dose 41.9 μmol 57Fe/kg of soil", "value": 0.49, "unit": "g/3 plants"},
      {"measurement": "Sprout dry weight, 1 sampling", "setting": "[1]; dose 41.9 μmol 57Fe/kg of soil", "value": 0.86, "unit": "g/plant"},
      {"measurement": "Sprout dry weight, 2 sampling", "setting": "[1]; dose 41.9 μmol 57Fe/kg of soil", "value": 3.20, "unit": "g/plant"},
      {"measurement": "The SPAD index, 2nd level of foliage", "setting": "[2]; 1.7 μmol of 57Fe/kg of soil", "value": 37.92},
      {"measurement": "The SPAD index, 3rd level of foliage", "setting": "[2]; 1.7 μmol of 57Fe/kg of soil", "value": 43.18},
      {"measurement": "The SPAD index, 2nd level of foliage", "setting": "[2]; 3.4 μmol of 57Fe/kg of soil", "value": 34.58},
      {"measurement": "The SPAD index, 3rd level of foliage", "setting": "[2]; 3.4 μmol of 57Fe/kg of soil", "value": 40.00},
      {"measurement": "The SPAD index, 2nd level of foliage", "setting": "[2]; 8.4 μmol of 57Fe/kg of soil", "value": 31.67},
      {"measurement": "The SPAD index, 3rd level of foliage", "setting": "[2]; 8.4 μmol of 57Fe/kg of soil", "value": 36.82},
      {"measurement": "The SPAD index, 2nd level of foliage", "setting": "[2]; 16.8 μmol of 57Fe/kg of soil", "value": 32.92},
      {"measurement": "The SPAD index, 3rd level of foliage", "setting": "[2]; 16.8 μmol of 57Fe/kg of soil", "value": 40.46},
      {"measurement": "The SPAD index, 2nd level of foliage", "setting": "[2]; 25.1 μmol of 57Fe/kg of soil", "value": 37.08},
      {"measurement": "The SPAD index, 3rd level of foliage", "setting": "[2]; 25.1 μmol of 57Fe/kg of soil", "value": 37.73},
      {"measurement": "The SPAD index, 2nd level of foliage", "setting": "[2]; 41.9 μmol of 57Fe/kg of soil", "value": 38.75},
      {"measurement": "The SPAD index, 3rd level of foliage", "setting": "[2]; 41.9 μmol of 57Fe/kg of soil", "value": 44.55}
    ]},
    {"compound": "O=C(O)CN(CCN(CC(=O)O)Cc1ccccc1O)Cc1ccccc1O", "note": "[HBED]", "values": [
      {"measurement": "Sprout dry weights compared with o,oEDDHA/57Fe3+", "setting": "[1]; conclusion from Table 1, all doses", "value": "no evident difference in the sprout dry weights"},
      {"measurement": "Root dry weight", "setting": "[1]; dose 1.7 μmol 57Fe/kg of soil", "value": 0.33, "unit": "g/3 plants"},
      {"measurement": "Sprout dry weight, 1 sampling", "setting": "[1]; dose 1.7 μmol 57Fe/kg of soil", "value": 0.73, "unit": "g/plant"},
      {"measurement": "Sprout dry weight, 2 sampling", "setting": "[1]; dose 1.7 μmol 57Fe/kg of soil", "value": 2.20, "unit": "g/plant"},
      {"measurement": "Root dry weight", "setting": "[1]; dose 3.4 μmol 57Fe/kg of soil", "value": 0.53, "unit": "g/3 plants"},
      {"measurement": "Sprout dry weight, 1 sampling", "setting": "[1]; dose 3.4 μmol 57Fe/kg of soil", "value": 0.79, "unit": "g/plant"},
      {"measurement": "Sprout dry weight, 2 sampling", "setting": "[1]; dose 3.4 μmol 57Fe/kg of soil", "value": 2.83, "unit": "g/plant"},
      {"measurement": "Root dry weight", "setting": "[1]; dose 8.4 μmol 57Fe/kg of soil", "value": 0.56, "unit": "g/3 plants"},
      {"measurement": "Sprout dry weight, 1 sampling", "setting": "[1]; dose 8.4 μmol 57Fe/kg of soil", "value": 0.91, "unit": "g/plant"},
      {"measurement": "Sprout dry weight, 2 sampling", "setting": "[1]; dose 8.4 μmol 57Fe/kg of soil", "value": 2.62, "unit": "g/plant"},
      {"measurement": "Root dry weight", "setting": "[1]; dose 16.8 μmol 57Fe/kg of soil", "value": 0.51, "unit": "g/3 plants"},
      {"measurement": "Sprout dry weight, 1 sampling", "setting": "[1]; dose 16.8 μmol 57Fe/kg of soil", "value": 0.72, "unit": "g/plant"},
      {"measurement": "Sprout dry weight, 2 sampling", "setting": "[1]; dose 16.8 μmol 57Fe/kg of soil", "value": 3.19, "unit": "g/plant"},
      {"measurement": "Root dry weight", "setting": "[1]; dose 25.1 μmol 57Fe/kg of soil", "value": 0.43, "unit": "g/3 plants"},
      {"measurement": "Sprout dry weight, 1 sampling", "setting": "[1]; dose 25.1 μmol 57Fe/kg of soil", "value": 0.92, "unit": "g/plant"},
      {"measurement": "Sprout dry weight, 2 sampling", "setting": "[1]; dose 25.1 μmol 57Fe/kg of soil", "value": 2.66, "unit": "g/plant"},
      {"measurement": "Root dry weight", "setting": "[1]; dose 41.9 μmol 57Fe/kg of soil", "value": 0.49, "unit": "g/3 plants"},
      {"measurement": "Sprout dry weight, 1 sampling", "setting": "[1]; dose 41.9 μmol 57Fe/kg of soil", "value": 0.79, "unit": "g/plant"},
      {"measurement": "Sprout dry weight, 2 sampling", "setting": "[1]; dose 41.9 μmol 57Fe/kg of soil", "value": 2.63, "unit": "g/plant"},
      {"measurement": "SPAD index compared with o,oEDDHA/57Fe3+", "setting": "[2]; both levels of foliage", "value": "No significant differences in the values of the SPAD index"},
      {"measurement": "The SPAD index, 2nd level of foliage", "setting": "[2]; 1.7 μmol of 57Fe/kg of soil", "value": 29.58},
      {"measurement": "The SPAD index, 3rd level of foliage", "setting": "[2]; 1.7 μmol of 57Fe/kg of soil", "value": 34.09},
      {"measurement": "The SPAD index, 2nd level of foliage", "setting": "[2]; 3.4 μmol of 57Fe/kg of soil", "value": 28.75},
      {"measurement": "The SPAD index, 3rd level of foliage", "setting": "[2]; 3.4 μmol of 57Fe/kg of soil", "value": 35.91},
      {"measurement": "The SPAD index, 2nd level of foliage", "setting": "[2]; 8.4 μmol of 57Fe/kg of soil", "value": 42.50},
      {"measurement": "The SPAD index, 3rd level of foliage", "setting": "[2]; 8.4 μmol of 57Fe/kg of soil", "value": 43.18},
      {"measurement": "The SPAD index, 2nd level of foliage", "setting": "[2]; 16.8 μmol of 57Fe/kg of soil", "value": 27.92},
      {"measurement": "The SPAD index, 3rd level of foliage", "setting": "[2]; 16.8 μmol of 57Fe/kg of soil", "value": 37.73},
      {"measurement": "The SPAD index, 2nd level of foliage", "setting": "[2]; 25.1 μmol of 57Fe/kg of soil", "value": 27.92},
      {"measurement": "The SPAD index, 3rd level of foliage", "setting": "[2]; 25.1 μmol of 57Fe/kg of soil", "value": 37.73},
      {"measurement": "The SPAD index, 2nd level of foliage", "setting": "[2]; 41.9 μmol of 57Fe/kg of soil", "value": 29.17},
      {"measurement": "The SPAD index, 3rd level of foliage", "setting": "[2]; 41.9 μmol of 57Fe/kg of soil", "value": 43.64}
    ]}
  ]
}
